Measured values: publication PMC4508061, “Selectivity Profiling and Biological Activity of Novel β-Carbolines as Potent and Selective DYRK1 Kinase Inhibitors” (PLoS ONE, 2015)

What was measured:
Test in all cases: ProQinase radiometric kinase panel
Details in all cases: mean of 2 exp.
FLT3 = FLT3 (Homo sapiens, UniProt P36888)
TSK2 = TSK2 (Homo sapiens, UniProt Q96PF2)
PKC-alpha = PKC-alpha (Homo sapiens, UniProt P17252)
PRKD2 = PRKD2 (Homo sapiens, UniProt Q9BZL6)
ERK7 = ERK7 (Homo sapiens, UniProt Q8TD08)
FRK = FRK (Homo sapiens, UniProt P42685)
EPHB3 = EPHB3 (Homo sapiens, UniProt P54753)
NEK11 = NEK11 (Homo sapiens, UniProt Q8NG66)
CDK1/CycB1 = CDK1/CycB1 (Homo sapiens, UniProt P06493)
MAPKAPK5 = MAPKAPK5 (Homo sapiens, UniProt Q8IW41)
EPHB1 = EPHB1 (Homo sapiens, UniProt P54762)
TAOK3 = TAOK3 (Homo sapiens, UniProt Q9H2K8)
PRK1 = PRK1 (Homo sapiens, UniProt Q16512)
PRKG2 = PRKG2 (Homo sapiens, UniProt Q13237)
FGF-R3 = FGF-R3 (Homo sapiens, UniProt P22607)
EGF-R = EGF-R (Homo sapiens, UniProt P00533)
CAMK4 = CAMK4 (Homo sapiens, UniProt Q16566)
IGF1-R = IGF1-R (Homo sapiens, UniProt P08069)
RIPK5 = RIPK5 (Homo sapiens, UniProt Q6XUX3)
MAP3K9 = MAP3K9 (Homo sapiens, UniProt P80192)
KIT = KIT (Homo sapiens, UniProt P10721)
Protocol: Gini coefficients were calculated and the Lorenz curve (Fig 3B) was plotted by applying the Microsoft Excel spreadsheet provided by Graczyk [44].
radiometric protein kinase assays.

DNA-PK = DNA-PK (Homo sapiens, UniProt P78527)
MAP3K11 = MAP3K11 (Homo sapiens, UniProt Q16584)
p38-gamma = p38-gamma (Homo sapiens, UniProt P53778)
CK2-alpha1 = CK2-alpha1 (Homo sapiens, UniProt P68400)
Aurora-C = Aurora-C (Homo sapiens, UniProt Q9UQB9)
MAP3K7 = MAP3K7 (Homo sapiens, UniProt O43318)
SNARK = SNARK (Homo sapiens, UniProt Q9H093)
ACV-R1B = ACV-R1B (Homo sapiens, UniProt P36896)
MAP3K1 = MAP3K1 (Homo sapiens, UniProt Q13233)
INS-R = INS-R (Homo sapiens, UniProt P06213)
NEK6 = NEK6 (Homo sapiens, UniProt Q9HC98)
IRAK1 = IRAK1 (Homo sapiens, UniProt P51617)
COT = COT (Homo sapiens, UniProt P41279)
EPHA5 = EPHA5 (Homo sapiens, UniProt P54756)
AKT1 = AKT1 (Homo sapiens, UniProt P31749)
CAMK1D = CAMK1D (Homo sapiens, UniProt Q8IU85)
ROCK1 = ROCK1 (Homo sapiens, UniProt Q13464)
FAK = FAK (Homo sapiens, UniProt Q05397)

Chain of NEK11 (Q8NG66 whole entry): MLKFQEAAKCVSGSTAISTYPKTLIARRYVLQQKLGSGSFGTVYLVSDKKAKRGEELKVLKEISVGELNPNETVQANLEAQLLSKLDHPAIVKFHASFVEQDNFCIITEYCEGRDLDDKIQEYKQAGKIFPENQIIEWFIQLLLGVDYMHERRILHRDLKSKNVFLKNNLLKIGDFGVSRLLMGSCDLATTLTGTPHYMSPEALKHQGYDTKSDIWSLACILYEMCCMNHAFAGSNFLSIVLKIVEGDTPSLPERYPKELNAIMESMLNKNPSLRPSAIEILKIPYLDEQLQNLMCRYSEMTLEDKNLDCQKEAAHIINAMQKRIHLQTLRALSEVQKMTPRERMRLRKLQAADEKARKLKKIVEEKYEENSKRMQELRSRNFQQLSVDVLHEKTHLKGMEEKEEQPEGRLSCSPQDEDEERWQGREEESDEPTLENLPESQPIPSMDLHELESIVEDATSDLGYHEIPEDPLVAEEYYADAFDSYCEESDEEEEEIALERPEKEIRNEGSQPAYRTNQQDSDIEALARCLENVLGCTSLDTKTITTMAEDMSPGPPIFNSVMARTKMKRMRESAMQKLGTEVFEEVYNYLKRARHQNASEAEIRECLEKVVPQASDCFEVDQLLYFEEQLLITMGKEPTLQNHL
Chain of EPHB3 (P54753 34-998): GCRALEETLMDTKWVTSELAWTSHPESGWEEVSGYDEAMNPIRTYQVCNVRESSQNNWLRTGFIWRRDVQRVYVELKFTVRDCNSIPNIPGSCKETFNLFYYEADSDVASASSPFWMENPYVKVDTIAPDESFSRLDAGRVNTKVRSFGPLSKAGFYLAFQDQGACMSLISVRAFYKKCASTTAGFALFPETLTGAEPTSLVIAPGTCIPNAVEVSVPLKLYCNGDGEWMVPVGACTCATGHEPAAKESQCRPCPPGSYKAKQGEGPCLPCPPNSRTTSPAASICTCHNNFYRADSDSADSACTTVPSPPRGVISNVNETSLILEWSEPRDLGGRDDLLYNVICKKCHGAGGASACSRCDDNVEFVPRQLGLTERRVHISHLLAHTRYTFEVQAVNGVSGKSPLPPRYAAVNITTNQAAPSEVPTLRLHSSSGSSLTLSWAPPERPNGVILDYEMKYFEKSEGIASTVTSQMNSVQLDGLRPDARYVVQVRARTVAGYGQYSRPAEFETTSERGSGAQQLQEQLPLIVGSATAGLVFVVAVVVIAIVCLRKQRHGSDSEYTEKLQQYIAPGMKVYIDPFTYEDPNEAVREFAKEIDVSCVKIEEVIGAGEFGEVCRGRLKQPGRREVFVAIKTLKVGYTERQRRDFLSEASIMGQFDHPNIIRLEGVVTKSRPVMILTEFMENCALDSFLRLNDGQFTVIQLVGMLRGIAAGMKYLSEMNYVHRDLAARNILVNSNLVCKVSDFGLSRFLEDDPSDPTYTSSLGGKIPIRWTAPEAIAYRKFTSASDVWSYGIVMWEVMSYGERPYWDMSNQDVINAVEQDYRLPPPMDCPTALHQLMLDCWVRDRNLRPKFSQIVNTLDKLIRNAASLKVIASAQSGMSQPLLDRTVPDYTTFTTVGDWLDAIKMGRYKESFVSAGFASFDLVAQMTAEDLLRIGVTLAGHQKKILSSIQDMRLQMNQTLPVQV
Chain of FRK (P42685 whole entry): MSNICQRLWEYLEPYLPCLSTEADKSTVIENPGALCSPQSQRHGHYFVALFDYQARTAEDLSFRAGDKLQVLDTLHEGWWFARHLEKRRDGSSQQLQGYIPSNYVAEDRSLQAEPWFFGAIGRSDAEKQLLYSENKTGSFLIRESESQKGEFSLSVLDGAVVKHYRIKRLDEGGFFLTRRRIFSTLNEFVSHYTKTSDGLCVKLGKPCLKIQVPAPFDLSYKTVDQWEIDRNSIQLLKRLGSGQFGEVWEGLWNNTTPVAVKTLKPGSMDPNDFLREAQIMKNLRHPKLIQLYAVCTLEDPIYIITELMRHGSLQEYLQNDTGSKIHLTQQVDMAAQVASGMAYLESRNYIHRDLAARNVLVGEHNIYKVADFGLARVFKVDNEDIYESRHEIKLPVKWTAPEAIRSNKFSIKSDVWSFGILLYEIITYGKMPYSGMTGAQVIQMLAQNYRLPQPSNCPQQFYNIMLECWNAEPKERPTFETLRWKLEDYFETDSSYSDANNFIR
Chain of FGF-R3 (P22607 23-806): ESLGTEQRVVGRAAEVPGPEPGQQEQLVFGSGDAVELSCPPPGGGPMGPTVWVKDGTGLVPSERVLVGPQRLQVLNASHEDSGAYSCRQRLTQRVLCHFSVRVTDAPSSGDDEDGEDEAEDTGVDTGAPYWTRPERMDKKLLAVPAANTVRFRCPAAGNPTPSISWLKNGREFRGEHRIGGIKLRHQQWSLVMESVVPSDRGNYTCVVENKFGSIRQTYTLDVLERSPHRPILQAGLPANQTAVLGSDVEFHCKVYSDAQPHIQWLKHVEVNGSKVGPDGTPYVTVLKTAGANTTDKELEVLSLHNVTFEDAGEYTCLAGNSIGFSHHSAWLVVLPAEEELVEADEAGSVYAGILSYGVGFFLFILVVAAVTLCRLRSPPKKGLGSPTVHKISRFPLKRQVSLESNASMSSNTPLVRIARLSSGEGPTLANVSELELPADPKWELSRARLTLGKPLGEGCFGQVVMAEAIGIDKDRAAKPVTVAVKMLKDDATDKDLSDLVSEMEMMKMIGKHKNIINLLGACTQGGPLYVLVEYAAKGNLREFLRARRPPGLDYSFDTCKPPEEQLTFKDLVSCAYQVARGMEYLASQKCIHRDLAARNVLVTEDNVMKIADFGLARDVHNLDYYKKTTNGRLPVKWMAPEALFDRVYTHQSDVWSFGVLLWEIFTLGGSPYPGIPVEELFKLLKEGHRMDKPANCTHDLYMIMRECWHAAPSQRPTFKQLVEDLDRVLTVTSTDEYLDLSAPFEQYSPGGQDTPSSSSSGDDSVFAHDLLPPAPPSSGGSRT
Chain of CDK1/CycB1 (P06493 whole entry): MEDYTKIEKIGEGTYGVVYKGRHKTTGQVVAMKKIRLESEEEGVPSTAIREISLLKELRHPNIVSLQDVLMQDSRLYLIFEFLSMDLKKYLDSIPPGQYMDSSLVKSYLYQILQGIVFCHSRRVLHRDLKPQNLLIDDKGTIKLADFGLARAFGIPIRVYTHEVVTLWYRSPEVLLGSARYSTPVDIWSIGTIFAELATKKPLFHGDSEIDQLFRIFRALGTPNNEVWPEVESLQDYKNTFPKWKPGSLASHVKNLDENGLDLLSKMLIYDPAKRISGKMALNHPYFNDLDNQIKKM
Chain of CDK1/CycB1 (P14635 whole entry partner): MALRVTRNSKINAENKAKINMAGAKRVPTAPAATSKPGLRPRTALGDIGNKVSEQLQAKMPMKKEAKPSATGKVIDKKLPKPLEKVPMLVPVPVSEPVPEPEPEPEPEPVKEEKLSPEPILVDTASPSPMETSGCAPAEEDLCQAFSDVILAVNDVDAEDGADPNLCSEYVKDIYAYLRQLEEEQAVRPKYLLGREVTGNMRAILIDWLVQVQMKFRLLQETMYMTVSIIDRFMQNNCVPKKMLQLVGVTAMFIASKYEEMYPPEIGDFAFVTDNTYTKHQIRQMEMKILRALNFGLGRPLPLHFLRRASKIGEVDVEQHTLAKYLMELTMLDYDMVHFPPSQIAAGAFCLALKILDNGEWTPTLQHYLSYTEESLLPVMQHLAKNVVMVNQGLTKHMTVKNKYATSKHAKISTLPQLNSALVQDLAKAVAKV
Chain of TAOK3 (Q9H2K8 whole entry): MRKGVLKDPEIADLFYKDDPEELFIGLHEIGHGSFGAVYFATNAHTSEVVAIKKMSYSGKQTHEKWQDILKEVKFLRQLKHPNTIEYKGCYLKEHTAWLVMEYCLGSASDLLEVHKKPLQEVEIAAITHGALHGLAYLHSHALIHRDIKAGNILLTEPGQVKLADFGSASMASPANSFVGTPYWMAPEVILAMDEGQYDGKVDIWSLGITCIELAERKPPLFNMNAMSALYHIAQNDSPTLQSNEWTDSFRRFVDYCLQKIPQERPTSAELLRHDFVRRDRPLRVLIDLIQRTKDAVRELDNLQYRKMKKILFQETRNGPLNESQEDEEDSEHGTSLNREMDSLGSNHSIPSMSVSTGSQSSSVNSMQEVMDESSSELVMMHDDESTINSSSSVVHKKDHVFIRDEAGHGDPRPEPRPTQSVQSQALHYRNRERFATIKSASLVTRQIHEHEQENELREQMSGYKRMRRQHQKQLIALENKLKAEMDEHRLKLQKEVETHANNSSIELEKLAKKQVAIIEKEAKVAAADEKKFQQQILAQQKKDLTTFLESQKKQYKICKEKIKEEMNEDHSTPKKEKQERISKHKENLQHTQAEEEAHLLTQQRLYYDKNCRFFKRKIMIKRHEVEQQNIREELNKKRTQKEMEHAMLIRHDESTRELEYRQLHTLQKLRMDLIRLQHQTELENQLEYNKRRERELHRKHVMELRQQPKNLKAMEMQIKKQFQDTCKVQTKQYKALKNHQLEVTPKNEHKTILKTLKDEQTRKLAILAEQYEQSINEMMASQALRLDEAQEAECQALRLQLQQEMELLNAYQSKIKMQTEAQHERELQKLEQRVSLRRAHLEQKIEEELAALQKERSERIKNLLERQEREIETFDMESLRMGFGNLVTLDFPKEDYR
Chain of ACV-R1B (P36896 24-505): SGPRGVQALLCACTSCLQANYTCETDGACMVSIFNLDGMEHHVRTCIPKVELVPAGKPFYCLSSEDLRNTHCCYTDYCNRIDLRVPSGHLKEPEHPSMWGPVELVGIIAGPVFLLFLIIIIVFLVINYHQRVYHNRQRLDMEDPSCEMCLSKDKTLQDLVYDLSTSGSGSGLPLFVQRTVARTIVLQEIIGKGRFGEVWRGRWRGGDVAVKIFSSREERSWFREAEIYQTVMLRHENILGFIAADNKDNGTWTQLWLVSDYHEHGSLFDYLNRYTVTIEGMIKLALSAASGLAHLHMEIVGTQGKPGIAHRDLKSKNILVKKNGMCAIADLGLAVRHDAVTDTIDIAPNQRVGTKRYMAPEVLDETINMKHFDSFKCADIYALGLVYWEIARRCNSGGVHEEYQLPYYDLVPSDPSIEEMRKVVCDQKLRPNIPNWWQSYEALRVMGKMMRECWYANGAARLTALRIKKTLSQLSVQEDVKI

COc1ccc2c3ccnc(Cl)c3n(CC#N)c2c1 [AnnH75] was tested, and the “residual activity at 1 µM, Mean” value (FLT3) was 70 % of control, the “residual activity at 1 µM, Mean” value (TSK2) was 92 % of control and the “residual activity at 1 µM, Mean” value (PKC-alpha) was 111 % of control. The “residual activity at 1 µM, Mean” value (PRKD2) was 90 % of control, the “residual activity at 1 µM, Mean” value (ERK7) was 59 % of control and the “residual activity at 1 µM, Mean” value (FRK) was 94 % of control. For the same molecule, the “residual activity at 1 µM, Mean” value (EPHB3) was 96 % of control, the “residual activity at 1 µM, Mean” value (NEK11) was 94 % of control and the “residual activity at 1 µM, Mean” value (CDK1/CycB1) was 81 % of control. For the same molecule, the “residual activity at 1 µM, Mean” value (MAPKAPK5) was 89 % of control, the “residual activity at 1 µM, Mean” value (EPHB1) was 89 % of control and the “residual activity at 1 µM, Mean” value (TAOK3) was 103 % of control. The “residual activity at 1 µM, Mean” value (PRK1) was 94 % of control, the “residual activity at 1 µM, Mean” value (PRKG2) was 85 % of control and the “residual activity at 1 µM, Mean” value (FGF-R3) was 107 % of control. For the same molecule, the “residual activity at 1 µM, Mean” value (EGF-R) was 104 % of control, the “residual activity at 1 µM, Mean” value (CAMK4) was 111 % of control and the “residual activity at 1 µM, Mean” value (IGF1-R) was 83 % of control. For the same molecule, the “residual activity at 1 µM, Mean” value (RIPK5) was 91 % of control, the “residual activity at 1 µM, Mean” value (MAP3K9) was 100 % of control and the “residual activity at 1 µM, Mean” value (KIT) was 82 % of control. For the same molecule, the “residual activity at 1 µM, Mean” value (DNA-PK) was 63 % of control, the “residual activity at 1 µM, Mean” value (MAP3K11) was 98 % of control and the “residual activity at 1 µM, Mean” value (p38-gamma) was 86 % of control. The “residual activity at 1 µM, Mean” value (CK2-alpha1) was 96 % of control, the “residual activity at 1 µM, Mean” value (Aurora-C) was 97 % of control and the “residual activity at 1 µM, Mean” value (MAP3K7) was 91 % of control. The “residual activity at 1 µM, Mean” value (SNARK) was 95 % of control, the “residual activity at 1 µM, Mean” value (ACV-R1B) was 97 % of control and the “residual activity at 1 µM, Mean” value (MAP3K1) was 97 % of control. For the same molecule, the “residual activity at 1 µM, Mean” value (INS-R) was 92 % of control, the “residual activity at 1 µM, Mean” value (NEK6) was 104 % of control and the “residual activity at 1 µM, Mean” value (IRAK1) was 95 % of control. The “residual activity at 1 µM, Mean” value (COT) was 88 % of control, the “residual activity at 1 µM, Mean” value (EPHA5) was 84 % of control and the “residual activity at 1 µM, Mean” value (AKT1) was 102 % of control. The “residual activity at 1 µM, Mean” value (CAMK1D) was 102 % of control, the “residual activity at 1 µM, Mean” value (ROCK1) was 73 % of control and the “residual activity at 1 µM, Mean” value (FAK) was 103 % of control.
